This test has as its system cTK activity in plasma from a CML patient harboring the T315I mutation. The test can be described thus: Ex vivo plasma cTK activity assay, plasma from a multidrug-resistant CML patient with T315I mutation. Type of test: biochemical, human. As to conditions: 1-5 μM imatinib (FIG. 2A). On the procedure: After incubation at 37° C. for 30 min, the PY20-HRP solution was replaced by HRP substrate solution (TMBZ).

Structures are written as SMILES.

On to `Cc1ccc(NC(=O)c2ccc(CN3CCN(C)CC3)cc2)cc1Nc1nccc(-c2cccnc2)n1` [Imatinib, imatinib], for which the “Inhibition of cTK activity” value was “little inhibition”.

For the origin of these results see US10655161B2, “Diagnostic and prognostic assays based on circulating tyrosine kinase activity” (Quest Diagnostics Investments Incorporated, priority 2010, dated 2020).
